Laboratory results from a melting point compilation (Tetko et al.).

| SMILES | melting point [°C] |
| --- | --- |
| NS(=O)(=O)c1cc(C(=O)O)cc([N+](=O)[O-])c1Cl | 143 to 147 |
| O=S(=O)(c1ccc(S)nc1)N1CCOCC1 | 71 to 73 |
| NN1CCCC1=O | 47 to 49 |
| NCC(O)CN1CCc2ccccc2C1 (centres undefined) | 59 to 61 |
| O=C(O)c1cc(C2CC2)nc2c1cnn2Cc1ccccc1 | 209 to 211 |
| NC(CC(=O)N1CCCCC1)=NO | 179 to 181 |
| COc1ccccc1C(C)=CC(=O)O | 81 to 83 |
| OC(CC1COCCN1)c1ccco1 (centres undefined) | 84 to 86 |
| O=C1OC(O)C(Cl)=C1Cl (centres undefined) | 179 to 182 |
| CN1C(=O)CC(C(=O)O)C1c1ccccc1 (centres undefined) | 126 to 128 |
| Cc1ccc(Cl)c2ccc(=O)[nH]c12 | 254 to 256 |
| O=C(O)CSc1nncs1 | 157 to 159 |
| CC(C)C(Oc1ccccc1Br)C(=O)O (centres undefined) | 63 to 65 |
| Oc1ccc(-c2nc3cc(C(F)(F)F)ccc3s2)cc1 | 182 to 184 |
| CC(=O)c1ccc(N)cc1C | 83 to 85 |
| CNc1ncnc2ccccc12 | 179 to 181 |
| CC(=O)Nc1ccsc1 | 146 to 148 |
| Cc1ccc(-c2nn(CCC#N)cc2C(=O)O)cc1C | 174 to 176 |
| CC(C)(C)c1ccc(S(N)(=O)=O)cc1 | 136 to 138 |
| O=C1CCc2cc(Br)c(S(=O)(=O)Cl)cc2N1 | 224 to 226 |

| SMILES | melting point [°C] |
| --- | --- |
| CCC(C)(C)NS(=O)(=O)c1ccc(Cl)nc1 | 86 to 88 |
| CN(C)S(N)(=O)=O | 94 to 96 |
| Cc1cc2oc(=O)cc(CCl)c2cc1C(C)C | 132 to 134 |
| O=C(O)c1cnn(-c2nccs2)c1 | 181 to 183 |
| Cc1nc2scc(-c3ccccc3)c2c(=O)n1N | 134 to 136 |
| COc1c(OC(F)F)ccc(C=O)c1[N+](=O)[O-] | 61 to 63 |
| c1ccc(CC2CCN(c3ncnc4sccc34)CC2)cc1 | 124 to 126 |
| CCCC(C)(N)C(=O)O (centres undefined) | 269 to 271 |
| CC(C)C(C)(CC(=O)N1CCOCC1)C(=O)O (centres undefined) | 134 to 136 |
| Cc1cc(C)c(C(=O)O)c(Cl)n1 | 78 to 82 |
| Cc1nc(=N)c(C)c(C)[nH]1 | 196 to 198 |
| COc1ncnc(N)c1C=O | 197 to 199 |
| CC(=O)CC(=O)Nc1ccc(C)cc1Cl | 89 to 91 |
| O=C(Cc1ccccc1)C(Br)c1ccccc1 (centres undefined) | 47 to 49 |
| Cc1c(N)cccc1N1C(=O)CCC1=O | 182 to 184 |
| Cc1ccc(C(=O)c2ccc3[nH]c(=O)oc3c2)cc1 | 206 to 208 |
| O=C1COc2ncccc2N1 | 254 to 256 |
| CCNc1ccncc1 | 103 to 105 |
| N#Cc1nnc2ccccc2c1N | 319 to 321 |
| Cc1ccc(NCCC(=O)O)cc1Cl | 80 to 82 |

| SMILES | melting point [°C] |
| --- | --- |
| NC(=O)c1ccc(NCC(=O)O)cc1 | 271 to 273 |
| Sc1nncn1CCc1ccccn1 | 204 to 206 |
| NC(=S)NCc1ccc(Br)cc1 | 159 to 161 |
| Nc1nnc(-c2ccccn2)s1 | 260 to 262 |
| CC(C)(C)CC(=O)NN | 51 to 53 |
| O=[N+]([O-])c1ccc(C2CN=C(Nc3ccccc3)S2)cc1 (centres undefined) | 136 to 138 |
| CC1CCN(Cc2nc3sc4c(c3c(=O)[nH]2)CCC4)CC1 | 256 to 258 |
| CCOc1ccc(OCC(=O)O)cc1 | 125 to 130 |
| CC(NC(=O)Oc1ccccc1)C(=O)O (centres undefined) | 122 to 124 |
| Nc1nc(CN2CCNCC2)nc2ccccc12 | 213 to 215 |
| O=S(=O)(c1ccc(F)cc1F)N1CCNCC1 | 93 to 95 |
| CCCC(NCCC(=O)Nc1cc(C)on1)C(=O)O (centres undefined) | 227 to 229 |
| O=C(O)CCOc1cc(Cl)ccc1Cl | 145 to 147 |
| O=C(O)c1cc2c(cc1[N+](=O)[O-])OCCO2 | 221 to 223 |
| O=c1[nH]c(S)nc2c1cnn2-c1ccccc1 | 110 to 113 |
| CC(C)(O)c1cnc(Cl)nc1 | 98 to 100 |
| O=c1ccc(-n2cncn2)n[nH]1 | 240 to 242 |
| O=C(O)c1cc(S)ccc1Cl | 154 to 156 |
| O=Cc1cnc(N2CCCC2)nc1 | 118 to 120 |
